Results: patent publication US20090176772A1, “METHOD OF REVERSING LEFT VENTRICULAR REMODELING” (priority 2004, published 2009)

How the values were obtained:
Assay type in all cases: in vivo, dog
[1] = system: dogs with chronic heart failure produced by multiple sequential intracoronary microembolizations; assay: Blood neurohumoral and electrolyte measurements in dogs with chronic heart failure; details: mean±SEM; for T-PNE = transmyocardial norepinephrine: aorta minus coronary sinus
Text: (§1) The following example examines the effects of ranolazine alone and in combination with an angiotensin converting enzyme (ACE) inhibitor and in combination with a beta-blocker on the progression of left ventricular (LV) dysfunction and LV chamber remodeling in dogs with chronic heart failure produced by multiple sequential intracoronary microembolizations.
(§2) Chronic LV dysfunction and failure in dogs was produced by multiple sequential intracoronary embolizations with polystyrene Latex microspheres (77-109 μm in diameter) as previously described by Sabbah et al. (1991) Am. J. Physiol. 260:H1379-H1384. Coronary microembolizations were performed during cardiac catheterization under general anesthesia and sterile conditions. Anesthesia was induced using a combination of intravenous injections of hydromorphone (0.22 mg/kg), diazepam (0.2-0.6 mg/kg) and sodium pentobarbital 50-100 mg to effect. Plane of anesthesia was maintained throughout the study using 1% to 2% isoflurane. Left and right heart catheterization was performed via a femoral arteriotomy and venotomy. After each catheterization, the vessels were repaired using 6-0 silk and the skin closed with 4-0 suture. Microembolizations were discontinued when LV ejection fraction, determined angiographically, was between 30% and 40%. A period of 2 weeks was allowed after the last embolization to ensure that infarctions produced by the last microembolizations have completely healed and heart failure was established. The study protocol was then performed.
(§3) Healthy, conditioned, purpose-bred mongrel dogs weighing between 19 and 25 kg.
(§4) A randomized, blinded, placebo controlled study design was used. A total of 28 dogs underwent multiple sequential intracoronary microembolizations as described above to produce chronic heart failure. Two weeks after the last embolization, dogs were randomized into 4 study groups (treatment arms). Dogs were randomized to 3 months oral therapy with ranolazine alone (375 mg, bid, n=7), ranolazine (375 mg bid) in combination with metoprolol tartrate (25 mg bid, n=7), ranolazine (375 mg bid) in combination with enalapril (10 mg bid, n=7), or placebo (ranolazine vehicle bid, n=7). Hemodynamic, angiographic, echocardiographic, Doppler and neurohumoral measurements were made prior to randomization (2 weeks after the last embolization) and after completion of therapy (3 months after initiating therapy). After completing the final hemodynamic and angiographic study, dogs were euthanized and the hearts removed and tissue prepared and saved for future histological and biochemical evaluations. The study primary and secondary end-points were as follows:
Evaluation of plasma concentrations of several neurohormones were made to complement the hemodynamic assessments. Measurements were made at each of the study time periods described for hemodynamic and angiographic assessments. Transmyocardial PNE concentration was estimated by obtaining blood samples from the ascending aorta and coronary sinus during cardiac catheterization. Transmyocardial PNE was calculated as the difference between the two samples. Venous blood samples were obtained in duplicate from conscious dogs prior to cardiac catheterizations for measurement of plasma concentration of norepinephrine, plasma renin activity and plasma atrial natriuretic factor using radioimmunoassay. In addition, blood samples were obtained at the same time intervals for determination of serum electrolytes (Na+, K+, creatinine and BUN).
(§5) To ensure that all study measures were similar at baseline, comparisons were made between all 4 study groups before any embolizations and at the time of randomization before initiation of therapy. For these comparisons, a one way analysis of variance (ANOVA) was used with a set at 0.05. If significance was attained, then group wise comparisons were made using the Student-Newman-Kuels test with significance set at p≦0.05. […]

[2] = system: dogs with chronic heart failure produced by multiple sequential intracoronary microembolizations; assay: Histomorphometric evaluations of LV tissue of dogs with chronic heart failure
Text: as §1, §2, §3, §4
On the day of sacrifice, after completion of all hemodynamic and angiographic studies, the dog's chest was opened through a left thoracotomy, the pericardium was opened and the heart rapidly removed and placed in ice-cold, Tris buffer (pH 7.4). Three 2 mm thick transverse slices were obtained from the LV; one slice from the basal third, one from the middle third and one from the apical third and placed in 10% formalin. Transmural blocks were also obtained and rapidly frozen in isopentane cooled to −160° C. by liquid nitrogen and stored at −70° C. until needed. LV tissue samples were also obtained and stored in gluteraldehyde for future scanning and transmission electron microscopic studies.
From each heart, 3 transverse slices one from the basal third, middle third and apical third of the LV, each […], were obtained. For comparison, tissue samples from 7 normal dogs were obtained and prepared in an identical manner. From each transverse slice, transmural tissue blocks were obtained and embedded in paraffin blocks. From each block, 6 μm thick sections were prepared and stained with Gomori trichrome to identify fibrous tissue. […]

[3] = system: dogs with chronic heart failure produced by multiple sequential intracoronary microembolizations; assay: Hemodynamic measurements in dogs with chronic heart failure, 3 months oral therapy
Text: as §1, §2, §3, §4
All hemodynamic measurements were made during left and right heart catheterizations in anesthetized dogs. Baseline measurements, prior to any microembolizations, were be made to ensure that all hemodynamic parameters are within normal limits. Abnormal dogs were excluded from the study. The following parameters were measured in all dogs at all three study time periods: heart rate, mean aortic pressure, peak rate of change of LV pressure during isovolumic contraction (peak+dP/dt) and relaxation (peak−dP/dt), and LV end-diastolic pressure.
as §5, with “p≦0.05. Within group comparisons between pre-treatment and post-treatment measures were made using a Students paired t-test with p<0.05 considered significant. To assess treatment effect, the change (Δ) in each measure from pre-treatment to post-treatment was calculated for each of the 4 study arms.” for “p≦0.05.”

[4] = POST: after 3 months of oral therapy bid
[5] = PRE: at time of randomization, before therapy
[6] = change from pre-treatment to post-treatment (3 months)
[7] = POST: after 3 months of oral therapy bid, mean±SEM
[8] = PRE: at time of randomization, before therapy, mean±SEM
[9] = change from pre-treatment to post-treatment (3 months), mean±SEM

COc1ccccc1OCC(O)CN1CCN(CC(=O)Nc2c(C)cccc2C)CC1 (racemic) [RAN Alone, (±)-N-(2,6-dimethylphenyl)-4-[2-hydroxy-3-(2-methoxyphenoxy)-propyl]-1-piperazineacetamide]
T-PNE = transmyocardial norepinephrine [1, 4]: −2.9 ± 6.1
ANF = atrial natriuretic factor [1, 4]: 67 ± 11 pg/mL
BUN = blood urea nitrogen [1, 4]: 15 ± 2 mg/dL
Creat = serum creatinine [1, 4]: 1.0 ± 0.1 mg/dL
K+ (serum electrolyte) [1, 4]: 4.7 ± 0.1
Na+ (serum electrolyte) [1, 4]: 147 ± 0.8
PNE = plasma norepinephrine [1, 4]: 199 ± 43 pg/mL
PRA = plasma rennin activity [1, 4]: 1.57 ± .55 ng/mL/h
T-PNE = transmyocardial norepinephrine [1, 5]: 8.6 ± 7.0
ANF = atrial natriuretic factor [1, 5]: 87 ± 15 pg/mL
BUN = blood urea nitrogen [1, 5]: 18 ± 2 mg/dL
Creat = serum creatinine [1, 5]: 0.9 ± 0.0 mg/dL
K+ (serum electrolyte) [1, 5]: 4.5 ± 0.1
Na+ (serum electrolyte) [1, 5]: 147 ± 0.5
PNE = plasma norepinephrine [1, 5]: 217 ± 25 pg/mL
PRA = plasma rennin activity [1, 5]: 1.69 ± .71 ng/mL/h
Δ ANF (atrial natriuretic factor) [1, 6]: 20 ± 14 pg/mL
Δ BUN (blood urea nitrogen) [1, 6]: -2.1 ± 1.4 mg/dL
Δ Creat (serum creatinine) [1, 6]: 0.0 ± 0.1 mg/dL
Δ K+ [1, 6]: 0.1 ± 0.1
Δ Na+ [1, 6]: −0.3 ± 1.0
Δ PNE (plasma norepinephrine) [1, 6]: -19 ± 42 pg/mL
Δ PRA (plasma rennin activity) [1, 6]: 0.13 ± 0.92 ng/mL/h
Δ T-PNE (transmyocardial norepinephrine) [1, 6]: −11 ± 9
VFRF = volume fraction of replacement fibrosis ([2]; LV tissue after 3 months of therapy, mean±SEM, normal dogs 0 ± 0, placebo 14.6 ± 1.2): 10.5 ± 2.1 %
VFIF = volume fraction of interstitial fibrosis ([2]; LV tissue after 3 months of therapy, mean±SEM, normal dogs 3.7 ± 0.1, placebo 13.0 ± 0.7): 11.0 ± 0.4 %
ODD = oxygen diffusion distance ([2]; LV tissue after 3 months of therapy, mean±SEM, normal dogs 8.9 ± 0.2, placebo 11.5 ± 0.3): 10.9 ± 0.2 μm
MCSA = myocyte cross-sectional area ([2]; LV tissue after 3 months of therapy, mean±SEM, normal dogs 409 ± 10, placebo 772 ± 21): 685 ± 23 μm2
CD = capillary density ([2]; LV tissue after 3 months of therapy, mean±SEM, normal dogs 2607 ± 80, placebo 1706 ± 28): 1832 ± 43 capillaries/mm2
Histomorphometric measures (myocyte cross-sectional area, replacement and interstitial fibrosis, oxygen diffusion distance, capillary density) compared to placebo ([2]; after 3 months of therapy): significantly improved
+dP/dt = peak LV +dP/dt [3, 7]: 1416 ± 124 mmHg/sec
HR = heart rate [3, 7]: 80 ± 4 beats/min
LVEDP = LV end-diastolic pressure [3, 7]: 10 ± 1 mmHg
mAoP = mean aortic pressure [3, 7]: 81 ± 7 mmHg
−dP/dt = peak LV −dP/dt [3, 7]: 1460 ± 134 mmHg/sec
+dP/dt = peak LV +dP/dt [3, 8]: 1253 ± 119 mmHg/sec
HR = heart rate [3, 8]: 77 ± 2 beats/min
LVEDP = LV end-diastolic pressure [3, 8]: 14 ± 1 mmHg
mAoP = mean aortic pressure [3, 8]: 72 ± 3 mmHg
−dP/dt = peak LV −dP/dt [3, 8]: 1254 ± 74 mmHg/sec
LV end-diastolic pressure, intra-group comparison pre- vs post-treatment ([3]; at the end of 3 months of treatment): decreased significantly
Δ +dP/dt (peak LV +dP/dt) [3, 9]: 163 ± 81 mmHg/sec
Δ HR (heart rate) [3, 9]: 3.3 ± 4.9 beats/min
Δ LVEDP (LV end-diastolic pressure) [3, 9]: −4.4 ± 1.1 mmHg
Δ mAoP (mean aortic pressure) [3, 9]: 9.1 ± 6.9 mmHg
Δ −dP/dt (peak LV −dP/dt) [3, 9]: 206 ± 109 mmHg/sec
